Test results as given in publication PMC7582905, “Effect of Disulfide Cyclization of Ultrashort Cationic Lipopeptides on Antimicrobial Activity and Cytotoxicity” (International Journal of Molecular Sciences, 2020).
Where a SMILES comes first, the peptide text is derived from it. Bridges are numbered along the chain shown (N, C = ends). The star is where a group is joined. Palmitoyl = CCCCCCCCCCCCCCCC(=O)*

Key:
[1] = tested on: Staphylococcus aureus ATCC 25923; details: values marked *: performed by the group in the previous study; ref [29]; cited from earlier work
Text: Table 2 Antimicrobial activity of lipopeptides. | column: MIC (μg/mL) / S. aureus

[2] = tested on: human cervical adenocarcinoma cell line (HeLa S3); experiment: MTT assay; assay type: cell-based; details: 24 h incubation at 37 °C, six replicates per concentration, repeated at least twice
Experimental: (§1) To assess the cytotoxicity of the test lipopeptides (IC50), the classic MTT assay on 96-well polystyrene plates was performed for human keratinocytes (HaCaT) and human cervical adenocarcinoma cell line (HeLa S3) acquired from the ATCC. The assay utilizes colorimetric determination of the cell metabolic activity and the color intensity reflects the number of live cells that can be measured spectrophotometrically. The cell line was cultured in a Dulbecco’s modified Eagle Medium (Invitrogen) supplemented with 10% fetal bovine serum (v/v), 100 units/mL of penicillin, 100 μg/mL of streptomycin, and 2 mM l-glutamine and was stored at 37 °C in a humidified 5% CO2 incubator. Briefly, a day after plating of 500 cells per well, a series of concentrations (0.1–200 μg/mL) of the test compounds were applied. DMSO was added to the control cells at a final concentration of 1.0% (v/v), which was related to the maximal concentration of the solvent compounds used in the experiment. After 24 h of incubation with the lipopeptides at 37 °C in a humidified 5% CO2 incubator, a medium containing 1 mg/mL of MTT (3-(4,5-dimethylthiazol-2-yl)-2,5-diphenyltetrazolium bromide) was added to the wells up to a final concentration of 0.5 mg/mL. Subsequently, the plates were incubated at 37 °C for 4 h. Then, the medium was removed by suction, and the formazan product was solubilized with DMSO. The background absorbance at 630 nm was subtracted from that at 570 nm for each well (Epoch, BioTek Instruments, Winooski, VT, USA). Six replicates were conducted for each concentration. All experiments were repeated at least twice and the resulting IC50 values were calculated with a GraFit 7 software (v. 7.0, Erithacus, Berkley, CA, USA).

[3] = tested on: human keratinocytes (HaCaT); experiment: MTT assay; assay type: cell-based; details: 24 h incubation at 37 °C, six replicates per concentration, repeated at least twice
Experimental: as §1

[4] = tested on: Escherichia coli ATCC 25922; assay type: cell-based; details: ATCC 25922, 24 h
Experimental: (§2) The Staphylococcus aureus ATCC 25923, Staphylococcus epidermidis ATCC 14990, Escherichia coli ATCC 25922, Pseudomonas aeruginosa ATCC 9027, Candida albicans ATCC 10231, Candida glabrata ATCC 15126, Candida lipolytica PCM 2680-FY, and Candida tropicalis PCM 2709-FY strains were acquired from the Polish Collection of Microorganisms (PCM, Polish Academy of Sciences, Wrocław, Poland) and from the American Type Culture Collection (ATCC). All the strains were stored at −80 °C in Roti-Store cryo vials and before the tests were transferred into fresh Mueller–Hinton broth (MHB, Biocorp, Warsaw, Poland) for bacteria or RPMI-1640 (Sigma-Aldrich, Steinheim, Germany) for fungi and incubated for 24 h at 37 °C. Then, the cultures were seeded on Mueller–Hinton agar (BioMaxima, Lublin, Poland) or Sabouraud dextrose agar (SDA, BioMaxima, Lublin, Poland) plates, respectively, and incubated as just mentioned. These agar cultures were used for further microbiological assays. Cell densities for all assays were adjusted spectrophotometrically (Multiskan GO Microplate Spectrophotometer, Thermo Fisher Scientific, Vantaa, Finland) at 600 and 660 nm for bacteria and fungi, respectively.
(§3) MBECs were determined on 96-well polystyrene flat-bottom plates. For this purpose, 24 h cultures of microorganisms were diluted to obtain final density 5.0 × 10^5 CFU/mL and 2.0 × 10^5 CFU/mL of bacteria and fungi, respectively. Briefly, 100 µL of cell suspension was added into the test plates. After 24 h of incubation at 37 °C the wells were rinsed three times with a phosphate buffer saline (PBS, pH 7.4) to remove non-adherent cells. Subsequently, 100 μL of the test compounds in concentration range (0.5–256 μg/mL) were added to each well. After 24 h of incubation at 37 °C, 20 μL of a cell viability reagent was added (resazurin, 4 g/L; Sigma Aldrich, St. Louis, MO, USA). The MBEC was read after 1 h. The determined values were recorded as the lowest concentration at which the reduction of resazurin (from blue to pink) was lower or equal to 10 ± 0.5% as compared to the positive (100%) and negative (0%) controls. The reduction was monitored by measuring absorbance at 570 nm (reduced) and 600 nm (oxidized) using a microplate spectrophotometer (Multiskan GO Microplate Spectrophotometer, Thermo Fisher Scientific, Vantaa, Finland). All experiments were conducted in triplicate.

[5] = tested on: Candida glabrata ATCC 15126; assay type: cell-based; details: ATCC 15126, 24 h
Experimental: as §2, §3

[6] = tested on: Pseudomonas aeruginosa ATCC 9027; assay type: cell-based; details: ATCC 9027, 24 h
Experimental: as §2, §3

[7] = tested on: Candida tropicalis PCM 2709-FY; assay type: cell-based; details: PCM 2709-FY, 24 h
Experimental: as §2, §3

[8] = tested on: Candida lipolytica PCM 2680-FY; assay type: cell-based; details: 24 h
Experimental: as §2, §3

[9] = tested on: Staphylococcus epidermidis ATCC 14990; assay type: cell-based; details: ATCC 14990, 24 h
Experimental: as §2, §3

[10] = tested on: Candida albicans ATCC 10231; assay type: cell-based; details: ATCC 10231, 24 h
Experimental: as §2, §3

[11] = tested on: human red blood cells (hRBCs); experiment: Hemolysis assay; assay type: cell-based; details: peptide concentration causing 50% hemolysis; 4% (v/v) hRBCs in PBS, 1 h, 37 °C, absorbance 540 nm, triplicate
Experimental: The hemolysis assay was performed by using the method reported previously. Fresh human red blood cells (hRBCs) with anticoagulant (EDTA) were rinsed three times with a PBS by centrifugation at 800× g for 10 min and diluted with PBS. The lipopeptides were serially diluted on a 96-well microtiter polystyrene plate and hRBCs were added up to a final volume of 100 μL. The peptide concentration ranged between 0.5 and 256 μg/mL and the final hRBCs concentration was 4% (v/v). Controls for zero hemolysis (blank) and 100% hemolysis consisted of hRBCs suspended in PBS and 1% of Triton-X 100, respectively. The plate was incubated for 1 h at 37 °C and then centrifuged (800× g, 10 min, 4 °C). Subsequently, the supernatant was […] to new microtiter plates and the absorbance at 540 nm was measured. All experiments were conducted in triplicate. HC50 was calculated using an ic50.tk tool. Protocol of the study received approval from the local Bioethics Committee at the Medical University of Gdańsk (NKBBN/262/2019, approval date: 10 June 2019).

SMILES: CCCCCCCCCCCCCCCC(=O)N[C@H]1CSSC[C@@H](C(N)=O)NC(=O)[C@H](CCCCN)NC(=O)[C@H](CCCCN)NC(=O)[C@H](CCCCN)NC1=O [C1, C16-CKKKC-NH2] (Palmitoyl-CKKKC-NH2; disulfide 1-5)
- MIC S. aureus [1]: 8 * μg/mL
- HeLa IC50 [2]: 25.5 ± 2.9 µg/mL
- HaCaT IC50 [3]: 23.6 ± 6.0 µg/mL
- MBEC E. coli [4]: 256 µg/mL
- MBEC C. glabrata [5]: 256 µg/mL
- MBEC P. aeruginosa [6]: 256 µg/mL
- MBEC C. tropicalis [7]: 128 µg/mL
- MBEC C. lipolytica [8]: 64 µg/mL
- MBEC S. epidermidis [9]: 32 µg/mL
- MBEC C. albicans [10]: 256 µg/mL
- HC50 [11]: 43.9 ± 3.5 µg/mL

SMILES: CCCCCCCCCCCCCCCC(=O)N[C@H]1CSSC[C@@H](C(N)=O)NC(=O)[C@H](CCCCN)NC(=O)[C@H](CCCCN)NC(=O)[C@H](CCCCN)NC(=O)[C@H](CCCNC(=N)N)NC1=O [C3, C16-CRKKKC-NH2] (Palmitoyl-CRKKKC-NH2; disulfide 1-6)
- MIC S. aureus [1]: 8 * μg/mL
- HeLa IC50 [2]: 38.8 ± 4.4 µg/mL
- HaCaT IC50 [3]: 36.8 ± 2.7 µg/mL
- MBEC E. coli [4]: 256 µg/mL
- MBEC C. glabrata [5]: 32 µg/mL
- MBEC P. aeruginosa [6]: 256 µg/mL
- MBEC C. tropicalis [7]: 32 µg/mL
- MBEC C. lipolytica [8]: 16 µg/mL
- MBEC S. epidermidis [9]: 128 µg/mL
- MBEC C. albicans [10]: 32 µg/mL
- HC50 [11]: 66.5 ± 14.8 µg/mL

SMILES: CCCCCCCCCCCCCCCC(=O)N[C@H]1CSSC[C@@H](C(N)=O)NC(=O)[C@H](CCCCN)NC(=O)[C@H](CCCNC(=N)N)NC(=O)[C@H](CCCCN)NC(=O)[C@H](CCCCN)NC1=O [C5, C16-CKKRKC-NH2] (Palmitoyl-CKKRKC-NH2; disulfide 1-6)
- MIC S. aureus [1]: 8 * μg/mL
- HeLa IC50 [2]: 21.9 ± 4.5 µg/mL
- HaCaT IC50 [3]: 12.9 ± 4.6 µg/mL
- MBEC E. coli [4]: 128 µg/mL
- MBEC C. glabrata [5]: 64 µg/mL
- MBEC P. aeruginosa [6]: 256 µg/mL
- MBEC C. tropicalis [7]: 32 µg/mL
- MBEC C. lipolytica [8]: 16 µg/mL
- MBEC S. epidermidis [9]: 64 µg/mL
- MBEC C. albicans [10]: 64 µg/mL
- HC50 [11]: 97.0 ± 15.4 µg/mL

SMILES: CCCCCCCCCCCCCCCC(=O)N[C@H]1CSSC[C@@H](C(N)=O)NC(=O)[C@H](CCCNC(=N)N)NC(=O)[C@H](CCCCN)NC(=O)[C@H](CCCCN)NC(=O)[C@H](CCCCN)NC1=O [C6, C16-CKKKRC-NH2] (Palmitoyl-CKKKRC-NH2; disulfide 1-6)
- MIC S. aureus [1]: 16 * μg/mL
- HeLa IC50 [2]: 30.4 ± 2.5 µg/mL
- HaCaT IC50 [3]: 45.7 ± 13.5 µg/mL
- MBEC E. coli [4]: >256 µg/mL
- MBEC C. glabrata [5]: 64 µg/mL
- MBEC P. aeruginosa [6]: >256 µg/mL
- MBEC C. tropicalis [7]: 32 µg/mL
- MBEC C. lipolytica [8]: 16 µg/mL
- MBEC S. epidermidis [9]: 128 µg/mL
- MBEC C. albicans [10]: 64 µg/mL
- HC50 [11]: 71.0 ± 6.4 µg/mL

SMILES: CCCCCCCCCCCCCCCC(=O)N[C@@H](CCCCN)C(=O)N[C@@H](CCCCN)C(=O)N[C@@H](CCCCN)C(N)=O [L1, C16-KKK-NH2]
- MIC S. aureus [1]: 32 * μg/mL
- HeLa IC50 [2]: 3.9 ± 1.1 µg/mL
- HaCaT IC50 [3]: 5.2 ± 0.6 µg/mL
- MBEC E. coli [4]: 64 µg/mL
- MBEC C. glabrata [5]: 256 µg/mL
- MBEC P. aeruginosa [6]: 128 µg/mL
- MBEC C. tropicalis [7]: 128 µg/mL
- MBEC C. lipolytica [8]: 64 µg/mL
- MBEC S. epidermidis [9]: 32 µg/mL
- MBEC C. albicans [10]: 256 µg/mL
- HC50 [11]: 90.0 ± 6.5 µg/mL

SMILES: CCCCCCCCCCCCCCCC(=O)N[C@@H](CCCNC(=N)N)C(=O)N[C@@H](CCCCN)C(=O)N[C@@H](CCCCN)C(=O)N[C@@H](CCCCN)C(N)=O [L3, C16-RKKK-NH2] (Palmitoyl-RKKK-NH2)
- MIC S. aureus [1]: 16 * μg/mL
- HeLa IC50 [2]: 8.4 ± 1.7 µg/mL
- HaCaT IC50 [3]: 23.6 ± 3.4 µg/mL
- MBEC E. coli [4]: 128 µg/mL
- MBEC C. glabrata [5]: 128 µg/mL
- MBEC P. aeruginosa [6]: 256 µg/mL
- MBEC C. tropicalis [7]: 32 µg/mL
- MBEC C. lipolytica [8]: 32 µg/mL
- MBEC S. epidermidis [9]: 32 µg/mL
- MBEC C. albicans [10]: 128 µg/mL
- HC50 [11]: 79.1 ± 6.1 µg/mL

SMILES: CCCCCCCCCCCCCCCC(=O)N[C@@H](CCCNC(=N)N)C(=O)N[C@@H](CCCNC(=N)N)C(=O)N[C@@H](CCCCN)C(=O)N[C@@H](CCCCN)C(N)=O [L7, C16-RRKK-NH2] (Palmitoyl-RRKK-NH2)
- HeLa IC50 [2]: 3.0 ± 0.4 µg/mL
- HaCaT IC50 [3]: 8.1 ± 1.1 µg/mL
- MBEC E. coli [4]: 256 µg/mL
- MBEC C. glabrata [5]: 128 µg/mL
- MBEC P. aeruginosa [6]: 256 µg/mL
- MBEC C. tropicalis [7]: 64 µg/mL
- MBEC C. lipolytica [8]: 16 µg/mL
- MBEC S. epidermidis [9]: 64 µg/mL
- MBEC C. albicans [10]: 64 µg/mL
- HC50 [11]: 65.4 ± 1.5 µg/mL
